In brackets after ≈: the same amount, converted by molar mass.
How the values were obtained:
[1] = Theoretical calculation about permeability; details: for Apparent permeability and flux reduced to (fraction): calculated, sink conditions, donor 5 μg/mL; for Papp: not told; for Calculated Pm (app): Equation (3); for Calculated Daq (app): Equation (5), hUWL (app) = 100 μm; for Calculated Pm (U): pH 6.5 buffer
Experimental: Based on Fick’s first law, flux in the drug permeation can be expressed as shown in Equation (1): [36, 43]
As described in the introduction, overall permeation can be divided into membrane permeation and UWL permeation.
Pm (app) is calculated using the fraction of UFDs (FU) as shown in Equation (3):(3) Pm (app)= FUPm (U) where Pm (U) is the intrinsic permeability of UFDs.
PUWL (app) can be expressed using the apparent aqueous diffusivity (Daq (app)) from Fick’s first law as shown in Equation (5): (5) PUWL (app)= Daq (app)/hUWL (app) where hUWL (app) is the apparent thickness of the UWL. When there are no solubilizer additives in the drug formulation or test media in the permeability measurements, Equation (5) can be described as shown in Equation (6):(6) PUWL (U)= Daq (U)/hUWL (U) where hUWL (U) is the intrinsic thickness of the UWL and Daq (U) is the intrinsic aqueous diffusivity of UFDs. The thickness of the UWL can be determined based on rotation speed in the flux experiment. If the rotation speed is constant, we can assume that the thickness of the UWL is constant, independent of the addition of solubilizer additives, as shown in Equation (7):(7) hUWL (app)= hUWL (U)
Substituting hUWL (app) of Equation (5) and hUWL (U) of Equation (6) for Equation (7), PUWL (app) is described as shown in Equation (8):(8) PUWL (app)= PUWL (U)×Daq (app)/Daq (U)
The apparent aqueous diffusivity (Daq (app)) is a combined total of each fraction of aqueous diffusivity as shown in Equation (9):(9) Daq (app)= FUDaq (U) + (1−FU)Daq (B) where FU is the same fraction of UFDs as in Equation (4) and Daq (B) is the aqueous diffusivity of drug molecules bound to solubilizer additives. PUWL (app) can be calculated by Equations (6), (8), and (9) as shown in Equation (10):(10) PUWL (app)= 1/hUWL (app) {FUDaq(U) + (1−FU)Daq (B)}
Using the MW of the model compounds, each Daq (U) was calculated (calculated Daq (U) in Table 4). The UWL thickness (hUWL (app) or hUWL (U)) for the MicroFlux^TM measurements in this study was estimated to be around 100 μm based on previous studies. The intrinsic UWL permeability of UFDs (PUWL (U)) was then calculated by Equation (6) (calculated PUWL (U) in Table 4).
The apparent membrane permeability (Pm (app)) was calculated by Equation (3) using the fraction of UFDs (FU) in Table 3 and Pm (U) (calculated Pm (app) in Table 5). […] The apparent aqueous diffusivity (Daq (app)) was calculated by Equation (5) using PUWL (app) and hUWL (app) = 100 μm (calculated Daq (app) in Table 5). Substituting FU, Daq (app), and Daq (U) in Equation (9), the aqueous diffusivity of drug molecules bound to SLS (Daq (B)) was calculated (calculated Daq (B) in Table 5). As for triamcinolone, Daq (B) was not calculated in this study. […] As the aggregated number of SLS in aqueous solutions was reported to be 62, their micellar weight appeared to be around 18,000 Da. […] Assuming this micellar size is constant, permeability and flux could be calculated by Equation (10) and Equation (12) using the apparent solubility.
When pH 6.5 buffer is in the donor chamber, the apparent UWL thickness is expressed using Equations (2) and (6) as shown in Equation (14):(14) hUWL (app)=Daq (U)(1/Papp−1/Pm (U))

physchem = details: 37 °C, thermodynamic from solid
Experimental: (§1) The concentration–time profiles were determined via manual sampling from the donor chambers and acceptor chambers during flux measurements. At 0, 30, 60, 120, 240, and 360 min, 100 μL of the acceptor chamber solution was withdrawn and diluted to 100 μL (2× dilution) of 3:2 DMA:ethylene glycol (v/v). At the same time point, 400 μL of the donor chamber solution was withdrawn and filtered through a polytetrafluoroethylene (PTFE) membrane filter of 0.22 μm pose size. Then, 100 μL of the filtered solution was diluted to 100 μL (2× dilution) of 3:2 DMA:ethylene glycol (v/v). The sample concentration was determined by ultra-high-performance liquid chromatography (UHPLC).
(§2) The sample concentrations were measured on a Waters (Milford, MA) Acquity UPLC H-Class system. An Acquity UPLC® BEH Shield RP18 1.7 μm, 2.1 × 50 mm, was used for chromatographic separation. A gradient mobile phase, spanning 95:5 to 0:100 (v/v) water:MeCN (both containing 0.05%TFA) over 2.0 min, was pumped at a flow rate of 1.0 mL/min.

[2] = pH 6.5
Experimental: as §1, §2

[3] = design: method as in PMID 20006692; details: 500 mg dose; cited from earlier work
[4] = Flux measurements by MicroFlux; details: for Papp: not told, sink conditions, average ± SD (n = 3); for Flux in pH 6.5 buffer + 0.05% SLS compared with pH 6.5 buffer: sink conditions (5 μg/mL griseofulvin, 100 μg/mL triamcinolone)
Experimental: as §1
From the obtained concentration–time profiles in the acceptor chambers, the flux (J) was calculated. The flux refers to the mass transfer through the membrane, and it is defined as the total amount of material crossing one unit area of the membrane per unit time, as described by Equation (11):(11) J (t)=1/A·dm/dt= V/A·dC(t)/dt where dm/dt (μg/mL) is the total amount of material crossing the membrane per unit time, A is the area of the membrane (1.54 cm^2), V is the volume of the acceptor chamber (20 mL), and dC(t)/dt (μg/(mL⋅min)) is the slope of the concentration–time profiles in the acceptor chambers. Time intervals were selected in each test to exclude the lag time of the concentration–time profile and calculate the initial flux. […] Based on Fick’s first law, assuming the sink condition in the acceptor chambers, the flux can be described by Equation (12):(12) J (t)=PappCD(t) where Papp is the apparent permeability of drugs and CD (t) is the drug concentration in the donor chambers.
The sample concentrations were measured on a Waters (Milford, MA) Acquity UPLC H-Class system. An Acquity UPLC® BEH Shield RP18 1.7 μm, 2.1 × 50 mm, was used for chromatographic separation. A gradient mobile phase, spanning 95:5 to 0:100 (v/v) water:MeCN (both containing 0.05%TFA) over 2.0 min, was pumped at a flow rate of 1.0 mL/min. […] The injection volume and ultraviolet (UV) wavelength for triamcinolone were 1 μL and 292 nm, respectively.

[5] = 37 °C; cited from earlier work
[6] = design: method as in PMID 17724660, PMID 8668668, PMID 1808607; details: partitioning between octanol and water; cited from earlier work
[7] = pH 6.5, pH 6.5 buffer + 0.05% SLS, read-out: Calculated Papp (converted)
[8] = pH 6.5, pH 6.5 buffer, read-out: Calculated Papp (U) (converted)
[9] = pH 6.5, Measured Papp (U), pH 6.5 buffer
[10] = pH 6.5, Measured Papp, pH 6.5 buffer + 0.05% SLS

COC1=CC(=O)C[C@@H](C)[C@]12Oc1c(Cl)c(OC)cc(OC)c1C2=O [Griseofulvin]
Apparent permeability and flux reduced to (fraction) ([1]; apparent solubility increased by 5 times): about 1/4 | Apparent permeability and flux reduced to (fraction) ([1]; apparent solubility increased by 10 times): 1/7 | Calculated Daq (B) ([1]; drug molecules bound to SLS, Equation (9)): 8.37 × 10^−7 cm^2/s | Papp [1, 7]: 108 ×10⁻⁶ cm/s | Papp [1, 8]: 247 ×10⁻⁶ cm/s | Calculated PUWL (app) ([1]; pH 6.5 buffer + 0.05% SLS, Equation (2)): 255 ×10⁻⁶ cm/s | Calculated Pm (app) ([1]; pH 6.5 buffer + 0.05% SLS): 187 ×10⁻⁶ cm/s | Calculated Daq (app) ([1]; pH 6.5 buffer + 0.05% SLS): 2.56 × 10^−6 cm^2/s | Calculated Pm (U) ([1]; Equation (2)): 473 ×10⁻⁶ cm/s | solubility (physchem; pH 6.5, aqueous buffer): 10.8 ± 0.38 µg/mL (≈ 30.5 µM) | solubility (physchem; pH 6.5, aqueous with cosolvent or surfactant or cyclodextrin): 27.4 ± 0.07 µg/mL (≈ 77.7 µM) | Solubility change by the addition of 0.05% SLS [2]: about 2.5 fold | UFD Amount [2]: 10.75 µg/mL | Increase of in vivo permeability and in vivo drug absorption by solid drugs in the UWL [3]: about twofold | Sample concentration in the donor chamber ([4]; 50, 200 and 1000 μg/mL doses (non-sink), pH 6.5 buffer): about 10 μg/mL | Sample concentration in the donor chamber ([4]; 50, 200 and 1000 μg/mL doses (non-sink), pH 6.5 buffer + 0.05% SLS): about 25 μg/mL | Apparent permeability in pH 6.5 buffer + 0.05% SLS compared with pH 6.5 buffer ([4]; based on Equation (12)): almost half | Increase of total permeated amount when the dose amount exceeded solubility ([4]; donor concentration almost constant): 20–30% | Flux increase depending on the dose amount ([4]; non-sink conditions, both pH 6.5 buffer and pH 6.5 buffer + 0.05% SLS): 10–30% | Papp [4, 9]: 247 ×10⁻⁶ cm/s | Papp [4, 10]: 108 ×10⁻⁶ cm/s | Flux in pH 6.5 buffer + 0.05% SLS compared with pH 6.5 buffer [4]: almost half | Aqueous solubility [5]: 29.9 [40, 41] μg/mL

C[C@]12C=CC(=O)C=C1CC[C@H]1[C@@H]3C[C@@H](O)[C@](O)(C(=O)CO)[C@@]3(C)C[C@H](O)[C@@]12F [Triamcinolone]
Log P [6]: 1.03 [40, 42] | Papp [1, 7]: 4.38 ×10⁻⁶ cm/s | Papp [1, 8]: 5.07 ×10⁻⁶ cm/s | Calculated Pm (app) ([1]; pH 6.5 buffer + 0.05% SLS): 5 ×10⁻⁶ cm/s | Calculated Daq (app) ([1]; pH 6.5 buffer + 0.05% SLS): 3.54 × 10^−7 cm^2/s | Calculated Pm (U) ([1]; Equation (2)): 5.12 ×10⁻⁶ cm/s | Calculated Pm (U) ([1]; Equation (2), listed as triamcinolone): around 0.0003 cm/min | Sample concentration in the donor chamber ([4]; 500, 2000 and 10,000 μg/mL doses (non-sink), pH 6.5 buffer and pH 6.5 buffer + 0.05% SLS): about 200 μg/mL | Papp [4, 9]: 5.07 ×10⁻⁶ cm/s | Papp [4, 10]: 4.38 ×10⁻⁶ cm/s | Flux and donor concentration at the 10,000 μg/mL dose, higher than at 500 and 2000 μg/mL doses ([4]; pH 6.5 buffer + 0.05% SLS, non-sink conditions): about 10% | Flux in pH 6.5 buffer + 0.05% SLS compared with pH 6.5 buffer [4]: almost similar values
